From patent US20250113823A1, “Arthropod Control Compositions” (priority 2022, published 2025) come the findings set out here.

Assay [1] has as its system Aedes aegypti. The experiment in a line: Double (dual) chamber assay, spatial repellence. In kind it is in vivo. As to the method: FIG. 1: Percentage of mosquitoes Aedes aegypti escaping over time the chamber treated with a stimulus. The four stimuli were the solvent propan-1,2-diol (grey triangles and dotted line), N,N-diethyl-meta-toluamide (medium grey diamonds), 2,6-dimethoxy-4-methylphenol (light gray squares) and 1,2,3-trimethoxy-5-propylbenzene (black circles). Each stimulus was injected during 40 min thanks to a forced evaporation system in the treated chamber containing the mosquitoes, causing their movement toward the untreated refuge chamber. Each point represents the mean number of mosquitoes in the untreated chamber (n=57, 6, 4 and 4 respectively)±SD at 10 min intervals.
The goal of this assay was to reproduce at a smaller scale the validation test for spatial repellent as described in WHO (2013; ISBN 978 92 4 150502 4).
The assay consists of a transparent cage (1200×755×700 mm; ˜0.63 m^3) covered by white paper. This cage is divided in two chambers of equal dimensions by a plasticized paper wall with square opening (200×200 mm) situated in the middle of the wall. At the beginning of the experiment, about 40 two-weeks old female Aedes aegypti mosquitoes are placed in the right chambers. Once the mosquitoes are settled inside this chamber (>5 min), the door between the chambers is opened. Then the stimulus is introduced into the mosquito chamber through a L-shape Teflon tube (40 mm) placed in the middle of the right Plexiglas wall. The stimulus is dispensed thanks to a Forced Evaporation System (Chappuis et al, 2015, DOI: 10.1021/acs.est.5b00692) at a rate of 0.1 mL/min in a nitrogen flow of 1 L/min, blended in a humid air flow of 9L/min before being carried to the L-shape Teflon tube. An air sucking system (˜150 L/min) is placed above the wall opening, between the two chambers (100 mm Ø), preventing the untreated chamber from being contaminated by the stimulus and limiting the stimulus accumulation in the treated chamber. […] Ten, 20, 30 and 40 minutes after the start of the stimulus injection, the number of mosquitoes that have moved to the untreated chamber is manually counted.

The subject of assay [2] is Aedes aegypti. Kind of assay: Warm Body assay, mosquito landings on treated warm body. Format: in vivo. To be noted: Aedes aegypti, read-out: Percentage of repellence of mosquitoes Aedes aegypti landing on the warm body. Summed up: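 Compounds in ethanol (100 μL, various concentrations) were applied to a sandblasted glass dish covering the warm body (28.3 cm^2), with ethanol as control. Landings were counted automatically from 30 non-blood-fed, sugar-fed Aedes aegypti Rockefeller females aged 5–10 days, under 150 lux.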

Assay [3] concerns Aedes aegypti. Kind of assay: Free flying room assay, spatial repellence with human volunteer. In kind it is in vivo. From the text: The goal of this large-scale test is to assess the propensity of stimulus released in the air to protect a human volunteer by limiting the mosquito presence in a protected space and the number of landing/biting. The protocol used to carry the test is following the guidelines indicated in WHO (2013; ISBN 978 92 4 150502 4).
A group of 50 Aedes aegypti female mosquitoes were introduced in one chamber of 25 m^3 one hour before the test started. The product was applied in the other chamber of 25 m^3 (“treated chamber”) and let evaporate for 30 minutes. The test started when the window separating the two chambers was opened in a tilt-on manner for another 30 minutes. Twenty minutes after the window was opened, a volunteer entered in the “treated chamber” and sat down for 10 minutes, exposing the forearm for the last 3 minutes to determine the probing activity (Protective Efficacy). Then, the connecting window was closed and the number of mosquitoes in each of the chambers was counted (Spatial Repellency). The negative controls were carried out following the same procedure but without the application of the stimulus. Three replicates of each treatment and of the negative control were conducted with three different volunteers.

In the next assay the test system is Ixodes ricinus. The experiment in a line: Warm Plate assay, tick repellence. The settings on record: Ixodes ricinus, read-out: Percentage of repellence of ticks Ixodes ricinus on the warm plate.

On to `CCN(CC)C(=O)c1cccc(C)c1` [DEET, N,N-diethyl-meta-toluamide, reference compound], for which the “movement of mosquitoes towards the refuge chamber” value in the assay with Aedes aegypti [1] (after 40 min of injection in the treated chamber) is 16.2%±7.3%.
On to `COc1cc(C)cc(OC)c1O` [compound 1537, 2,6-dimethoxy-4-methylphenol], for which the pest or weed control at 3.2 µg/mL in the assay with Aedes aegypti [2] (0.0032 mg/mL (Table 2)) amounted to 0%. In addition, in the assay with Aedes aegypti [2] (0.016 mg/mL (Table 2)), the pest or weed control at 16 µg/mL amounted to 35%. Also, the pest or weed control at 35.7 µg/mL in the assay with Aedes aegypti [2] (0.0357 mg/mL (Table 2)) was 36%. Also, the pest or weed control at 80 µg/mL in the assay on Aedes aegypti [2] (0.08 mg/mL (Table 2)) is 40%. Moreover, the pest or weed control at 178 µg/mL in the assay with Aedes aegypti [2] (0.178 mg/mL (Table 2)) came to 62%. Also, the pest or weed control at 400 µg/mL with Aedes aegypti [2] (0.4 mg/mL (Table 2)) is 89%; in the assay on Ixodes ricinus it was 16.7%. Also, in the assay with Aedes aegypti [2] (0.89 mg/mL (Table 2)), the pest or weed control at 890 µg/mL worked out at 84%. Further, the pest or weed control at 2000 µg/mL turned out to be 100% in the assay on Aedes aegypti [2] (2 mg/mL (Table 2)) and 58.3% with Ixodes ricinus. Further, the results for the pest or weed control at 10000 µg/mL with Aedes aegypti [2] (10 mg/mL (Table 2)) and in the assay with Ixodes ricinus were 100% and 72.7%, respectively. Moreover, the “plateau of mosquitoes moved to the untreated chamber” value with Aedes aegypti [1] (after 30 min of injection) is listed as approximately 42%. In the assay on Aedes aegypti [3] (in 3 minutes, negative control 60.7±2.5 landings), the “mosquitoes landed on the volunteer” value is given as 14.7±2.5. Further, in the assay with Aedes aegypti [3] (large scale assay, 25 m3 chambers, compound released in the air), the “Spatial Repellence” value stood at 64.3 ± 3.4%. In the assay on Aedes aegypti [3] (large scale assay, probing on volunteer forearm, 3 minutes), the Protective efficacy was determined as 75.8 ± 3.9%. Further, the “mosquito entered the treated chamber” value in the assay on Aedes aegypti [3] (negative control 82.5±3.7%) turned out to be 29.5±2.8%.
